Measured values as given in patent US9409880B2, “Modulators of TLR3/dsRNA complex and uses thereof” (The Regents of the University of Colorado, a body corporate, priority 2011, dated 2016).

Legend:
[1] = molecular target: T1, TLR3 (Mus musculus, UniProt Q99MB1); assay: In vitro TLR3 inhibition assay: Poly IC-induced NO production in RAW 264.7 cells; type: cell-based; details: whole cell inhibitory activity
T1 construct: endogenous in cells; host or cells: RAW 264.7
T1 sequence (Q99MB1 26-905): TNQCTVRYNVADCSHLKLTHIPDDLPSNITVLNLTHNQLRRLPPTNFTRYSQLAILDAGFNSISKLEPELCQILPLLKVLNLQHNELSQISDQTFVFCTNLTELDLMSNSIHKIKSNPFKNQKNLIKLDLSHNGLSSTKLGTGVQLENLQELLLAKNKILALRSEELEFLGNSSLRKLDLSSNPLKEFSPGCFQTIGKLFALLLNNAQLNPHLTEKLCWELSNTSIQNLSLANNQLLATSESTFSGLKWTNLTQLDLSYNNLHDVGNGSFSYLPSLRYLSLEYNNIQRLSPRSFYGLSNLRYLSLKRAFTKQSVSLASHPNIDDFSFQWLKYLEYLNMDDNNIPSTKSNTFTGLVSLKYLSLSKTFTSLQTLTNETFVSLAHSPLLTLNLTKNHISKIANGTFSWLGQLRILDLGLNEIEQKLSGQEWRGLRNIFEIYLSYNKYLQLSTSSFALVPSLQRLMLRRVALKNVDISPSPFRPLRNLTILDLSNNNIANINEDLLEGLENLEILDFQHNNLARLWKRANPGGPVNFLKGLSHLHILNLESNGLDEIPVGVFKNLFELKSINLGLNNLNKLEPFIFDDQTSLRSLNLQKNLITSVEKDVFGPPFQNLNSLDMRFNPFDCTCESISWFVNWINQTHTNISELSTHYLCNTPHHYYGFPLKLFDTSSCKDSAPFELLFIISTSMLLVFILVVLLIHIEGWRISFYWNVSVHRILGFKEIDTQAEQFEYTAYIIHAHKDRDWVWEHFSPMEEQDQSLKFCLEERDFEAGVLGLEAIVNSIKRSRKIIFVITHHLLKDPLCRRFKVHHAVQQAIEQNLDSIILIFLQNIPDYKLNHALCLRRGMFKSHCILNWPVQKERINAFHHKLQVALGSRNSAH
Text: The initial hits (Figure A) were first evaluated using the present inventors' previously established high-throughput cell assay of TLR3 activation. See, for example, ACS Med. Chem. Lett. 2010, 1, 194 and Bioorg. Med. Chem. Lett., 2010, 20, 5411. Poly IC (Polyriboinosinic:polyribocytidylic acid) has been reported to selectively activate TLR3 signaling, resulting in the activation of nitric oxide synthase and the production nitric oxide (NO) in RAW 264.7 macrophage cells. The NO level was monitored as an indicator of Poly IC-induced TLR3 activation to evaluate the drug's inhibitory activity.
RAW 264.7 (Mouse leukaemic monocyte macrophage cell line) cells were grown in RPMI 1640 medium, supplemented with 10% FBS, penicillin (100 U/mL) and streptomycin ([…]). RAW cells were then planted in 96-well plates at 100,000 cells per well and grown for 24 h in the media descried previously at 37° C. in a 5% CO2 humidified incubator. After 24 h, non-adherent cells and media were removed and replaced with fresh RPMI 1640 medium (only RPMI). The adherent macrophages were treated with high molecular weight polyinosine-polycytidylic acid (Poly IC) (10 μg/mL) (Invivogen), an agonist of TLR3, and then added different concentrates of potential inhibitor. Two rows were only treated with Poly IC as an control. Plates were then incubated for an additional 24 h. Following incubation 100 μL of media was removed and added to flat black 96-well microfluor plates (Thermo Scientific, MA, USA). To each well, 10 μL of 2,3-diaminonaphthalene (0.05 mg/mL in 0.62 M aqueous HCl solution) was added and incubated for 15 min in the dark. The reaction was quenched by addition of 5 μL of a 3 M aqueous NaOH solution and the plate was read on Beckman Coulter DTX880 reader (Beckman Coulter, Calif., USA) with excitation at 365 nm and emission at 450 nm. The nitrite (a stable metabolite of nitric oxide) concentration was determined from a nitrite standard curve. The inhibition rate (%) of NO release was determined using the following formula: Inhibition (%)=[Poly IC(OD450)−Compounds (OD450)]/[Poly IC(OD450)−Control (OD450)]×100. The IC50 values for both inhibition and cytotoxicity were determined graphically using software Origin v7.5.

[2] = molecular target: T2, TLR3 (Homo sapiens, UniProt O15455); assay: Fluorescence anisotropy assay, competition with Rhodamine labeled Poly IC; type: binding
T2 construct: purchased R &D
T2 sequence (O15455 24-904): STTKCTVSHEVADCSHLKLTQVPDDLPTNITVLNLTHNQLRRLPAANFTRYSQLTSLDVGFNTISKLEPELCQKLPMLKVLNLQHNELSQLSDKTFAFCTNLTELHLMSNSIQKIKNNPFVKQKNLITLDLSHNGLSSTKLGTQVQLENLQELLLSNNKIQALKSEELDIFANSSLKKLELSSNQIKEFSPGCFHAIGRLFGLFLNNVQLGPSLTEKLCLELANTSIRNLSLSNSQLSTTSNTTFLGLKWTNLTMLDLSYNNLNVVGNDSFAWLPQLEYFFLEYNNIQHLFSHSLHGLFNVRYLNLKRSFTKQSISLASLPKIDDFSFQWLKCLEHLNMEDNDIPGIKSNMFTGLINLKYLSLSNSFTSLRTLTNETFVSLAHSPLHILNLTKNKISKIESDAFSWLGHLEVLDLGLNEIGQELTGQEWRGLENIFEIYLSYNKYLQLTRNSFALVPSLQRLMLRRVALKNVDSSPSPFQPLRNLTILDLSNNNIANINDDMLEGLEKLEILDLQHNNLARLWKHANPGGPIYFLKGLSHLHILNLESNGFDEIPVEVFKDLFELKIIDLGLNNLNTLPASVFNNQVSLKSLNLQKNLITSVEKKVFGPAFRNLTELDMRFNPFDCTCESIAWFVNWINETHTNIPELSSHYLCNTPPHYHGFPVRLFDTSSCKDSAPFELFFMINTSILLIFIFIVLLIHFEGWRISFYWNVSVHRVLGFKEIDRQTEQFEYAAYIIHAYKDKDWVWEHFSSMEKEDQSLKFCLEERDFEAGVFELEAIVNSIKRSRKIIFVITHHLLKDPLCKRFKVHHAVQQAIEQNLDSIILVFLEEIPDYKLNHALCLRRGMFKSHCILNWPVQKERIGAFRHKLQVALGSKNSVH
Method: The anisotropy of Rhodamine labeled Poly IC increased from approximately 0.116 to 0.171 upon addition of TLR3 (excitation=546 nm; emission=576 nm).
In 500 μL Tris buffer (pH=7.2) add 5 μL (1 μg/mL) Rhodamine labeled Poly IC (Invivogen), test the anisotropy at excitation of 546 nm and emission of 576 nm (Horiba Fluorolog 3). An addition 3 μL (20 μM) of TLR3 (R &D) was added in the buffer, then test the anisotropy again. Following, 4a was added in the buffer from 0 to 68 μM, and the fluorescence anisotropy was tested when the concentration was changed.

[3] = Poly IC-induced NO, RAW 264.7, average ± SD, at least three independent tests

IC50 [1, 3] [µM]	IC50 ([1]; second part of Table 1 (R5/R6 series)) [µM]	Structure (SMILES)	TLR3 binding competition with dsRNA [2]
> 155		O=C(N[C@H](Cc1ccccc1)C(=O)O)c1cc2ccccc2s1 [Compound 1a, (R)-2-(benzo[b]thiophene-2-carboxamido)-3-phenylpropanoic acid]	does not show any significant binding to TLR3
	> 100	O=C(O)[C@@H](Cc1ccc(O)cc1)NS(=O)(=O)c1ccc(F)cc1 [Compound 19a, (R)-2-(4-fluorophenylsulfonamido)-3-(4-hydroxyphenyl)propanoic acid]	
11.8 ± 1.3		Cc1ccc2c(Cl)c(C(=O)N[C@H](Cc3ccccc3)C(=O)O)sc2c1 [Compound 2a, (R)-2-(3-chloro-6-methylbenzo[b]thiophene-2-carboxamido)-3-phenylpropanoic acid]	
11.8 ± 2.5		O=C(N[C@@H](Cc1ccccc1)C(=O)O)c1sc2cc(Cl)ccc2c1Cl [Compound 3b, (S)-2-(3,6-dichlorobenzo[b]thiophene-2-carboxamido)-3-phenylpropanoic acid]	
47.3 ± 4.1		O=C(N[C@H](Cc1ccccc1)C(=O)O)c1sc2ccc(F)cc2c1Cl [Compound 12a, (R)-2-(3-chloro-5-fluorobenzo[b]thiophene-2-carboxamido)-3-phenylpropanoic acid]	
> 100		O=C(N[C@@H](Cc1ccc(O)cc1)C(=O)O)c1cc2ccccc2s1 [Compound 9b]	
6.28 ± 1.05		O=C(N[C@H](Cc1ccccc1)C(=O)O)c1sc2cc(C(F)(F)F)ccc2c1Cl [Compound 5a, (R)-2-(3-chloro-6-(trifluoromethyl)benzo[b]thiophene-2-carboxamido)-3-phenylpropanoic acid]	
